Assay results from ChEMBL document CHEMBL1201862, “PubChem BioAssay data set” (2004).
Active and inactive are the calls of the source.

How the values were obtained:
Format in all cases: functional
[1] = biological target: Serine/threonine-protein kinase PAK 1 (Homo sapiens, UniProt Q13153)
[2] = biological target: Serine/threonine-protein kinase DCLK1 (Homo sapiens, UniProt O15075);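 further: affinity for DCLK1 (listed as DCAMKL1) measured as one member of a kinome-wide kinase profiling panel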
[3] = biological target: MAP kinase-interacting serine/threonine-protein kinase 2 (Homo sapiens, UniProt Q9HBH9)
[4] = biological target: RAC-gamma serine/threonine-protein kinase (Homo sapiens, UniProt Q9Y243)
[5] = biological target: Serine/threonine-protein kinase MRCK alpha (Homo sapiens, UniProt Q5VT25)
[6] = biological target: Mitogen-activated protein kinase kinase kinase kinase 4 (Homo sapiens, UniProt O95819)
LIM domain kinase 1 = LIM domain kinase 1 (Homo sapiens, UniProt P53667); test: Navigating the Kinome. Panel member name: LIMK1
Sequence of LIM domain kinase 1 (P53667 whole entry, the tested form may be a part): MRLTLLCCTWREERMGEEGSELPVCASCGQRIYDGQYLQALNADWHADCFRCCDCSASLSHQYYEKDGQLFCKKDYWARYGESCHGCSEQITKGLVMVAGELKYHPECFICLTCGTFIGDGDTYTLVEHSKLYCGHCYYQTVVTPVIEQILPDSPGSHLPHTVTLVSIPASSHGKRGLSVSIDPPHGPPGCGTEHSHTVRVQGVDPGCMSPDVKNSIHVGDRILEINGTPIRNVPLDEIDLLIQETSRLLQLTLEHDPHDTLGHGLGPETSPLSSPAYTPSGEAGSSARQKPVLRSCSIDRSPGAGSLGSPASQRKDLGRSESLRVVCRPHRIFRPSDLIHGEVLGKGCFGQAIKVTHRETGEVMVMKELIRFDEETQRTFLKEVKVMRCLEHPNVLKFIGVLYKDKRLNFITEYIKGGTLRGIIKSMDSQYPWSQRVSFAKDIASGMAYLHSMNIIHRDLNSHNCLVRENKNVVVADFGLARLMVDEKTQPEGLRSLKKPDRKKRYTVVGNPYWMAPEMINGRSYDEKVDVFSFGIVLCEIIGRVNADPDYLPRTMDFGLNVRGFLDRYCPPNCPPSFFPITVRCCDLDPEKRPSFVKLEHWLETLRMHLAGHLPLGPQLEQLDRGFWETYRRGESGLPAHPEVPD

[7] = biological target: Serine/threonine-protein kinase pim-3 (Homo sapiens, UniProt Q86V86);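 further: value obtained as one member of a broad kinase panel profiling effort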
[8] = biological target: STE20-like serine/threonine-protein kinase (Homo sapiens, UniProt Q9H2G2)
[9] = biological target: Cyclin-dependent kinase 5 (Homo sapiens, UniProt Q00535);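 further: CDK5 measured as one member of a kinase profiling panel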
Sequence of Cyclin-dependent kinase 5 (Q00535 whole entry): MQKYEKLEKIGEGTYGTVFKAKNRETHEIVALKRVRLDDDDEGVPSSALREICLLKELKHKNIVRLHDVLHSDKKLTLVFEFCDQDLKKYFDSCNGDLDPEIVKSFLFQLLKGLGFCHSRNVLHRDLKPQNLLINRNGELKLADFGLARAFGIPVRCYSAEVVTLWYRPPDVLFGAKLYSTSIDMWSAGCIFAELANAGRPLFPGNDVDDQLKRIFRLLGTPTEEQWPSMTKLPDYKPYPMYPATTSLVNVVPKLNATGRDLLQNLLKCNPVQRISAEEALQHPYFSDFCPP

[10] = biological target: Rho-associated protein kinase 1 (Homo sapiens, UniProt Q13464);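 further: measured within a broad kinome-wide panel profiling many kinases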
Sequence of Rho-associated protein kinase 1 (Q13464 whole entry): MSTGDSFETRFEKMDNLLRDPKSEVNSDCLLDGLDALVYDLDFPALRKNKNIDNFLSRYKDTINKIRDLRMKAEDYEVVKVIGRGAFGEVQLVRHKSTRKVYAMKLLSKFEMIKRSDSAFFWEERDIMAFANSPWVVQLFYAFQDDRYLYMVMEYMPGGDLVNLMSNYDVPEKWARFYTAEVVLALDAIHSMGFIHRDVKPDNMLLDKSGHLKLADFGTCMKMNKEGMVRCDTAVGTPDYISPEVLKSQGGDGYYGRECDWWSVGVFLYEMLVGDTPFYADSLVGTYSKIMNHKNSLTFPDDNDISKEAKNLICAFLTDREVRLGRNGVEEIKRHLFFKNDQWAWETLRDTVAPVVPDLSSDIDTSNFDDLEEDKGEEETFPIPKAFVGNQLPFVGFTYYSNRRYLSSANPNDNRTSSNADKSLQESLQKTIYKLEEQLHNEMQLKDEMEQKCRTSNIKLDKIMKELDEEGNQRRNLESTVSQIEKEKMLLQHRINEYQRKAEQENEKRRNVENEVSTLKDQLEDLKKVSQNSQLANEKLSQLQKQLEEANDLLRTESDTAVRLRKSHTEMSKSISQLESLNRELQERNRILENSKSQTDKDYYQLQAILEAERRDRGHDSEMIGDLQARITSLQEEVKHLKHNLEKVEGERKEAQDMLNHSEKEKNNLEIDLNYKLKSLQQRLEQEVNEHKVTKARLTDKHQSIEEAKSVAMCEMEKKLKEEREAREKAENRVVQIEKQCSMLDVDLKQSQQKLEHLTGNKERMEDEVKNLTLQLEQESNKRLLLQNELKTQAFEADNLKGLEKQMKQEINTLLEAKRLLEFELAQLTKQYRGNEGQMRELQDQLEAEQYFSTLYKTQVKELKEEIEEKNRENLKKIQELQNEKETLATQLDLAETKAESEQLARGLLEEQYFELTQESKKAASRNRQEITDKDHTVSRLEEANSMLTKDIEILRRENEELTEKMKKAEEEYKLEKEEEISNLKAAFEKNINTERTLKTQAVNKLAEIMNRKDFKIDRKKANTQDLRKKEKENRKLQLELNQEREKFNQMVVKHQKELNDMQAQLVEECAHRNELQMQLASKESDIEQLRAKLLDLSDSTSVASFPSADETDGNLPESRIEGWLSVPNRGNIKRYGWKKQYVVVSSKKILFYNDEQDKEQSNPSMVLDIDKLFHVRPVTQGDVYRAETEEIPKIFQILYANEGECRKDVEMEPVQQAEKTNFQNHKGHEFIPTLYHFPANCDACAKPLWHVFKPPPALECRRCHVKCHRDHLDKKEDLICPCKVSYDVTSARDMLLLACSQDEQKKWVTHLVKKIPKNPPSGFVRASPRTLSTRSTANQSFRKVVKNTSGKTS

[11] = biological target: Serine/threonine-protein kinase BRSK1 (Homo sapiens, UniProt Q8TDC3);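 further: measured within a kinome-wide kinase panel, with the target listed as KIAA1811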
[12] = biological target: Serine/threonine-protein kinase pim-1 (Homo sapiens, UniProt P11309)
Sequence of Serine/threonine-protein kinase pim-1 (P11309 whole entry): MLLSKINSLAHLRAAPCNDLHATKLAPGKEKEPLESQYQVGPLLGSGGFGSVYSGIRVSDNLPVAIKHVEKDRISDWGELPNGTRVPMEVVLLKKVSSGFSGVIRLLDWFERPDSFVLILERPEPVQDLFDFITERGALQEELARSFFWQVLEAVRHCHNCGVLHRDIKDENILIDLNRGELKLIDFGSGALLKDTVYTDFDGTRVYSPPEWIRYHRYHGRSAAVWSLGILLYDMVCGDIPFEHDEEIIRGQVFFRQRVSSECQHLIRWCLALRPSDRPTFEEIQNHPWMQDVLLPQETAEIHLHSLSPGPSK

[13] = biological target: Serine/threonine-protein kinase D3 (Homo sapiens, UniProt O94806);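 further: determined within a kinase panel screen, with PRKCN as the panel member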
Sequence of Serine/threonine-protein kinase D3 (O94806 whole entry): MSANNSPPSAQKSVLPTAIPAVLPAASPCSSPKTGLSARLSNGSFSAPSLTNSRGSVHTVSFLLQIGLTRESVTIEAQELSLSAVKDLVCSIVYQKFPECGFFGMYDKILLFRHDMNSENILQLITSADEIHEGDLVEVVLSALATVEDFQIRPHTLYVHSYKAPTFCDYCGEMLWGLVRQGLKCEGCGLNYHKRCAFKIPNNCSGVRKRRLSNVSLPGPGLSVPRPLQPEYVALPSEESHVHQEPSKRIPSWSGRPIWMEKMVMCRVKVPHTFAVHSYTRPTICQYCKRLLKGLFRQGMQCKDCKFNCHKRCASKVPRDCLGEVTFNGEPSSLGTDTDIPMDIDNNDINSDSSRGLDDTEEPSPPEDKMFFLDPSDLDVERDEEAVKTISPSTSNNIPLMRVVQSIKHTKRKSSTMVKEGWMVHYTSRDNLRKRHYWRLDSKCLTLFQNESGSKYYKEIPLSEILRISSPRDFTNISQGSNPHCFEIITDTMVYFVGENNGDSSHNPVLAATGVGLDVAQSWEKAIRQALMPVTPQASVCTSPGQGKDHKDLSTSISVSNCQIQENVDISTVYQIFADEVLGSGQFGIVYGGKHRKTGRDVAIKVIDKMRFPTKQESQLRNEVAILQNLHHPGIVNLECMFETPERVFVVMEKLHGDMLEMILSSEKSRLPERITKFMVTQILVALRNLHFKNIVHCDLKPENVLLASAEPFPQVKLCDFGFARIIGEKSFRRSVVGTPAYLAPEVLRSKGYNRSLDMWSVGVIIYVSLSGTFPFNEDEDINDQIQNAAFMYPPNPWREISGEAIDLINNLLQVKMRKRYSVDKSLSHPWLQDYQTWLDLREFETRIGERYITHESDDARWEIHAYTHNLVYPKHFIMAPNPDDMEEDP

[14] = biological target: Dual specificity tyrosine-phosphorylation-regulated kinase 1A (Homo sapiens, UniProt Q13627);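 further: measured against DYRK1A as one member of a broad kinome profiling panel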
[15] = biological target: Interleukin-1 receptor-associated kinase 4 (Homo sapiens, UniProt Q9NWZ3)
[16] = biological target: Serine/threonine-protein kinase TAO1 (Homo sapiens, UniProt Q7L7X3)
Sequence of Serine/threonine-protein kinase TAO1 (Q7L7X3 whole entry): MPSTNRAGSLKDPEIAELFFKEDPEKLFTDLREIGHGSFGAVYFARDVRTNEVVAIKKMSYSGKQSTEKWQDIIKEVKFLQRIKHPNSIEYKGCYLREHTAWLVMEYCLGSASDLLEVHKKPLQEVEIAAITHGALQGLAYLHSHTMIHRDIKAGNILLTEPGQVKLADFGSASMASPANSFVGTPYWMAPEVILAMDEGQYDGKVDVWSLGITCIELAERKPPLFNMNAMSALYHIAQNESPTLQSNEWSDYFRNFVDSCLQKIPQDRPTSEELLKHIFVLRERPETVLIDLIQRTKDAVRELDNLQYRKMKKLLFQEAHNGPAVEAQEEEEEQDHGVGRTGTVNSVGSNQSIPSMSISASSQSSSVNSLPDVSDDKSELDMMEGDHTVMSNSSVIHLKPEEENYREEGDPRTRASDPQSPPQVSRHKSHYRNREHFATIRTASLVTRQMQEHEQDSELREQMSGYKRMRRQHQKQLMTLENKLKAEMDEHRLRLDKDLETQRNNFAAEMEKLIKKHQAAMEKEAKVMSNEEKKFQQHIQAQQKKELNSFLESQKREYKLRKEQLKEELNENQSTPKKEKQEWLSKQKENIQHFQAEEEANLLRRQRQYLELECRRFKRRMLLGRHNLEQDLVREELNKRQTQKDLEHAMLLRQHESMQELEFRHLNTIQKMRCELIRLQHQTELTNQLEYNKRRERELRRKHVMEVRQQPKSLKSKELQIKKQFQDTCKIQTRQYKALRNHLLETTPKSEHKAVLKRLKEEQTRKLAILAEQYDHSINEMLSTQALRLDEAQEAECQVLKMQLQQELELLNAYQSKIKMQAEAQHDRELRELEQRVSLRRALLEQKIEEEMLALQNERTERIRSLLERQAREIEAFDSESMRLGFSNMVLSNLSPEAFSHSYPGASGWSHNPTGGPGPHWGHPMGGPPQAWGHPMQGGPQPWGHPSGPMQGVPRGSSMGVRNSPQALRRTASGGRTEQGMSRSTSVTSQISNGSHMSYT

[17] = biological target: MAP kinase-activated protein kinase 3 (Homo sapiens, UniProt Q16644);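 further: value comes from a kinome-wide profiling panel in which MAPKAPK3 is one of the panel members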
[18] = biological target: Serine/threonine-protein kinase Nek2 (Homo sapiens, UniProt P51955)
Sequence of Serine/threonine-protein kinase Nek2 (P51955 whole entry): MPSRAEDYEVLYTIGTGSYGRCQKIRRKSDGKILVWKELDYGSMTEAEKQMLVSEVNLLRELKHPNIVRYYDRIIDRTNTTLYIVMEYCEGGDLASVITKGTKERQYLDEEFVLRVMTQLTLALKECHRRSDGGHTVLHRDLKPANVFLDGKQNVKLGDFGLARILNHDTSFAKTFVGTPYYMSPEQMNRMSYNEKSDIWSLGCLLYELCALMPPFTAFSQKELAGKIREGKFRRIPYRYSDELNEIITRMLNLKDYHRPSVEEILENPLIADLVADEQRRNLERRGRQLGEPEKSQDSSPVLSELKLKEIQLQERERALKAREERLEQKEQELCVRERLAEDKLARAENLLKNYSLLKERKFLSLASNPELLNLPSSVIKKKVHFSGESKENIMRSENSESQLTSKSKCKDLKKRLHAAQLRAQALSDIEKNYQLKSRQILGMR

[19] = biological target: Mitogen-activated protein kinase kinase kinase kinase 5 (Homo sapiens, UniProt Q9Y4K4);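 further: measured as one member of a kinome-spanning kinase panel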
[20] = biological target: Tyrosine-protein kinase JAK3 (Homo sapiens, UniProt P52333)
[21] = biological target: BDNF/NT-3 growth factors receptor (Homo sapiens, UniProt Q16620);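 further: NTRK2 measured as one member of a broad kinome-wide kinase profiling panel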
[22] = biological target: ALK tyrosine kinase receptor (Homo sapiens, UniProt Q9UM73);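 further: ALK tested as one member of a kinase panel screen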
[23] = biological target: 5'-AMP-activated protein kinase catalytic subunit alpha-1 (Homo sapiens, UniProt Q13131)
[24] = biological target: High affinity nerve growth factor receptor (Homo sapiens, UniProt P04629);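 further: NTRK1 tested as one member of a kinome-wide profiling panel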
[25] = biological target: Tyrosine-protein kinase JAK2 (Homo sapiens, UniProt O60674);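 further: JAK2 tested as one member of a kinase panel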
[26] = biological target: Vascular endothelial growth factor receptor 2 (Homo sapiens, UniProt P35968)
[27] = biological target: Receptor-type tyrosine-protein kinase FLT3 (Homo sapiens, UniProt P36888);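 further: FLT3 was tested as one member of a kinome-wide kinase panel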
[28] = biological target: Macrophage-stimulating protein receptor (Homo sapiens, UniProt Q04912); test: Navigating the Kinome. Panel member name: MST1R
[29] = biological target: Platelet-derived growth factor receptor alpha (Homo sapiens, UniProt P16234); test: Navigating the Kinome. Panel member name: PDGFRA
Aurora kinase B = Aurora kinase B (Homo sapiens, UniProt Q96GD4)
[30] = biological target: Tyrosine-protein kinase Fyn (Homo sapiens, UniProt P06241)
[31] = biological target: Mitogen-activated protein kinase 14 (Homo sapiens, UniProt Q16539);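 further: part of a kinome-wide panel, MAPK14 entry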
[32] = biological target: Leukocyte tyrosine kinase receptor (Homo sapiens, UniProt P29376); test: Navigating the Kinome. Panel member name: LTK
[33] = biological target: Dual specificity tyrosine-phosphorylation-regulated kinase 1B (Homo sapiens, UniProt Q9Y463); test: Navigating the Kinome. Panel member name: DYRK1B
[34] = biological target: Dual specificity mitogen-activated protein kinase kinase 1 (Homo sapiens, UniProt Q02750); test: Navigating the Kinome. Panel member name: MAP2K1
[35] = biological target: G protein-coupled receptor kinase 5 (Homo sapiens, UniProt P34947); test: Navigating the Kinome. Panel member name: GPRK5
[36] = biological target: Tyrosine-protein kinase ABL1 (Homo sapiens, UniProt P00519)
[37] = biological target: Glycogen synthase kinase-3 alpha (Homo sapiens, UniProt P49840);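 further: GSK3A result taken from a broad kinome-wide kinase panel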
[38] = biological target: cAMP-dependent protein kinase catalytic subunit PRKX (Homo sapiens, UniProt P51817)
[39] = biological target: Cyclin-dependent kinase 7 (Homo sapiens, UniProt P50613);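 further: value comes from a kinome-wide kinase profiling panel in which CDK7 is one member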
[40] = biological target: Hepatocyte growth factor receptor (Homo sapiens, UniProt P08581);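 further: kinase panel profiling across the kinome, with MET as the panel member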
[41] = biological target: Inhibitor of nuclear factor kappa-B kinase subunit epsilon (Homo sapiens, UniProt Q14164); test: Navigating the Kinome. Panel member name: IKBKE
[42] = biological target: Leucine-rich repeat serine/threonine-protein kinase 2 (Homo sapiens, UniProt Q5S007);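 further: value from a broad kinome-wide panel profiling study in which LRRK2 was one of the kinases tested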
[43] = biological target: Insulin-like growth factor 1 receptor (Homo sapiens, UniProt P08069); test: Navigating the Kinome. Panel member name: IGF1R
Activated CDC42 kinase 1 = Activated CDC42 kinase 1 (Homo sapiens, UniProt Q07912); test: Navigating the Kinome. Panel member name: ACK1
[44] = biological target: Serine/threonine-protein kinase TBK1 (Homo sapiens, UniProt Q9UHD2); test: Navigating the Kinome. Panel member name: TBK1
[45] = biological target: Dual specificity protein kinase CLK4 (Homo sapiens, UniProt Q9HAZ1)
[46] = biological target: Tyrosine-protein kinase Lck (Homo sapiens, UniProt P06239);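 further: lck was assayed as one member of a kinase panel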
[47] = biological target: Serine/threonine-protein kinase Chk1 (Homo sapiens, UniProt O14757);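 further: measured as one member of a kinome-wide kinase profiling panel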
[48] = biological target: Fibroblast growth factor receptor 1 (Homo sapiens, UniProt P11362)
[49] = biological target: Mitogen-activated protein kinase 9 (Homo sapiens, UniProt P45984);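 further: value from a kinome panel profiling assay, MAPK9 panel entry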
[50] = biological target: Serine/threonine-protein kinase PAK 4 (Homo sapiens, UniProt O96013);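 further: value obtained within a kinome profiling panel in which PAK4 was one of the panel members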
[51] = biological target: Cyclin-dependent kinase 8 (Homo sapiens, UniProt P49336); test: Navigating the Kinome. Panel member name: CDK8
[52] = biological target: Glycogen synthase kinase-3 beta (Homo sapiens, UniProt P49841);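 further: value comes from a broad kinome profiling panel, with GSK3B as the panel member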
[53] = biological target: Mitogen-activated protein kinase kinase kinase kinase 2 (Homo sapiens, UniProt Q12851);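 further: measured as one member of a kinome-wide kinase panel, with MAP4K2 as the panel entry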
Activin receptor type-1 = Activin receptor type-1 (Homo sapiens, UniProt Q04771); test: Navigating the Kinome. Panel member name: ACVR1
[54] = biological target: Dual specificity mitogen-activated protein kinase kinase 2 (Homo sapiens, UniProt P36507); test: Navigating the Kinome. Panel member name: MAP2K2
[55] = biological target: Vascular endothelial growth factor receptor 1 (Homo sapiens, UniProt P17948);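 further: measured within a kinome-wide profiling panel, FLT1 as the panel member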
[56] = biological target: Death-associated protein kinase 3 (Homo sapiens, UniProt O43293);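 further: measured as one member of a kinome-wide profiling panel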
[57] = biological target: Mitogen-activated protein kinase 8 (Homo sapiens, UniProt P45983);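 further: value comes from one member of a kinome-wide kinase profiling panel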
[58] = biological target: Calcium/calmodulin-dependent protein kinase type II subunit alpha (Homo sapiens, UniProt Q9UQM7); test: Navigating the Kinome. Panel member name: CAMK2A
[59] = biological target: Protein kinase C theta type (Homo sapiens, UniProt Q04759); test: Navigating the Kinome. Panel member name: PRKCQ
[60] = biological target: Dual specificity protein kinase CLK2 (Homo sapiens, UniProt P49760)
[61] = biological target: Tyrosine-protein kinase receptor TYRO3 (Homo sapiens, UniProt Q06418);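 further: TYRO3 value obtained as one member of a kinome-wide profiling panel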
[62] = biological target: Macrophage colony-stimulating factor 1 receptor (Homo sapiens, UniProt P07333);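 further: value comes from the Navigating the Kinome screening panel, CSF1R member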

Q: With `COc1ccc(C=C2SC(=Nc3ccccc3)NC2=O)cc1OC` as the compound, how does the Ki [1] read?
A: > 10 µM (inactive)

Q: And the Ki [2]?
A: > 10 µM (inactive)

Q: What about the Ki [3] of the same compound?
A: 6.31 µM (active)

Q: What about the Ki [4] of the same compound?
A: > 10 µM (inactive)

Q: What about the Ki [5] of the same compound?
A: > 10 µM (inactive)

Q: And the Ki [6]?
A: 3.98 µM (active)

Q: What about the Ki (LIM domain kinase 1) of the same compound?
A: > 10 µM (inactive)

Q: And the Ki [7]?
A: 1 µM (active)

Q: And the Ki [8]?
A: > 10 µM (inactive)

Q: What about the Ki [9] of the same compound?
A: > 10 µM (inactive)

Q: What about the Ki [10] of the same compound?
A: > 10 µM (inactive)

Q: What about the Ki [11] of the same compound?
A: > 10 µM (inactive)

Q: What about the Ki [12] of the same compound?
A: 1.58 µM (active)

Q: What about the Ki [13] of the same compound?
A: > 10 µM (inactive)

Q: What about the Ki [14] of the same compound?
A: 6.31 µM (active)

Q: And the Ki [15]?
A: > 10 µM (inactive)

Q: What about the Ki [16] of the same compound?
A: > 10 µM (inactive)

Q: And the Ki [17]?
A: > 10 µM (inactive)

Q: What about the Ki [18] of the same compound?
A: > 10 µM (inactive)

Q: What about the Ki [19] of the same compound?
A: 6.31 µM (active)

Q: With `Cc1cc(OCc2ccc(Cl)c(Cl)c2)ccc1CN1CC(C(=O)O)C1` as the compound, how does the Ki [20] read?
A: > 5.01 µM (inactive)

Q: What about the Ki [21] of the same compound?
A: > 3.98 µM (inactive)

Q: And the Ki [22]?
A: > 6.31 µM (inactive)

Q: And the Ki [23]?
A: > 3.16 µM (inactive)

Q: And the Ki [24]?
A: > 3.16 µM (inactive)

Q: And the Ki [25]?
A: > 2.51 µM (inactive)

Q: And the Ki [26]?
A: > 2.51 µM (inactive)

Q: And the Ki [27]?
A: > 3.16 µM (inactive)

Q: And the Ki [28]?
A: > 3.98 µM (inactive)

Q: And the Ki [29]?
A: 0.2 µM (active)

Q: What about the Ki (Aurora kinase B) of the same compound?
A: > 3.98 µM (inactive)

Q: And the Ki [30]?
A: > 6.31 µM (inactive)

Q: And the Ki [31]?
A: > 3.98 µM (inactive)

Q: And the Ki [32]?
A: > 2.51 µM (inactive)

Q: And the Ki [33]?
A: > 2.51 µM (inactive)

Q: What about the Ki [34] of the same compound?
A: > 3.16 µM (inactive)

Q: And the Ki [35]?
A: > 3.98 µM (inactive)

Q: And the Ki [36]?
A: > 2.51 µM (inactive)

Q: And the Ki [37]?
A: > 3.98 µM (inactive)

Q: And the Ki [38]?
A: > 3.16 µM (inactive)

Q: And the Ki [39]?
A: > 3.98 µM (inactive)

Q: What about the Ki [40] of the same compound?
A: > 2.51 µM (inactive)

Q: What about the Ki (LIM domain kinase 1) of the same compound?
A: > 3.16 µM (inactive)

Q: And the Ki [41]?
A: > 3.16 µM (inactive)

Q: And the Ki [42]?
A: > 2.51 µM (inactive)

Q: And the Ki [43]?
A: > 2.51 µM (inactive)

Q: And the Ki (Activated CDC42 kinase 1)?
A: > 3.98 µM (inactive)

Q: And the Ki [44]?
A: > 3.16 µM (inactive)

Q: What about the Ki [45] of the same compound?
A: > 2.51 µM (inactive)

Q: And the Ki [46]?
A: > 6.31 µM (inactive)

Q: And the Ki [47]?
A: > 3.16 µM (inactive)

Q: And the Ki [48]?
A: > 3.98 µM (inactive)

Q: What about the Ki [49] of the same compound?
A: > 3.98 µM (inactive)

Q: And the Ki [50]?
A: > 5.01 µM (inactive)

Q: What about the Ki [9] of the same compound?
A: > 3.16 µM (inactive)

Q: And the Ki [51]?
A: > 3.98 µM (inactive)

Q: What about the Ki [10] of the same compound?
A: 3.16 µM (active)

Q: And the Ki [52]?
A: > 3.98 µM (inactive)

Q: And the Ki [53]?
A: > 2.51 µM (inactive)

Q: And the Ki (Activin receptor type-1)?
A: > 3.98 µM (inactive)

Q: And the Ki [54]?
A: > 3.98 µM (inactive)

Q: What about the Ki [55] of the same compound?
A: > 3.98 µM (inactive)

Q: And the Ki [12]?
A: > 6.31 µM (inactive)

Q: And the Ki [13]?
A: > 3.98 µM (inactive)

Q: What about the Ki [56] of the same compound?
A: > 5.01 µM (inactive)

Q: What about the Ki [57] of the same compound?
A: > 5.01 µM (inactive)

Q: What about the Ki [58] of the same compound?
A: > 3.98 µM (inactive)

Q: What about the Ki [59] of the same compound?
A: > 2.51 µM (inactive)

Q: What about the Ki [60] of the same compound?
A: > 3.98 µM (inactive)

Q: And the Ki [16]?
A: > 6.31 µM (inactive)

Q: What about the Ki [18] of the same compound?
A: > 3.16 µM (inactive)

Q: And the Ki [61]?
A: > 3.16 µM (inactive)

Q: What about the Ki [62] of the same compound?
A: > 2.51 µM (inactive)
